The text below walks through data of patent US20120189673A1, “POLYPEPTIDES AND USES THEREOF” (priority 2009, published 2012).

The subject of test [1] is E. coli LPS shock in C57BL/6 mice. The test is described as follows: LPS model in vivo (LPS-induced shock): survival, cytokines, lungs. Details: species or system mouse. The method, then:
Histochemistry—For immunostaining, wound biopsies were fixed in 10% formalin, rehydrated and embedded in paraffin. Sections of 5 μm thickness were placed on poly-lysine coated glass slides, deparaffinized in xylene and rehydrated in graded alcohols. The slides were then treated with Dako antigen retrieval solution (Dako) for 40 min at 97° C., and incubated for 24 h at room temperature in a 1:50 dilution of polyclonal antibodies against TFPI (Sigma-Aldrich, in TBS with 1% BSA, 5% goat serum, 0.05% Tween 20). After three 20 min washes in TBS with 0.05% Tween 20, the sections were incubated with alkaline phosphatase conjugated secondary goat anti-rabbit IgG (Dako) diluted 1:1000 in the same buffer as the primary antibody and incubated for another 24 hours, followed by three 20 min washes. Sections were developed with Vulcan Fast Red chromogen (Biocare Medical, Concord, Calif.) and the slides were counterstained with Harris Hematoxylin (EM Science, Gibbstown, N.J.). For histological evaluation of lungs derived from the in vivo LPS-models in mice, tissues were embedded as above, sectioned and stained with hematoxylin and eosin by routine procedures (Histocenter, Gothenburg, Sweden).
LPS model in vivo—Male C57BL/6 mice (8-10 weeks, 22+/−5 g), were injected intraperitoneally with 18 mg E. coli 0111:B4 LPS (Sigma) per kg of body weight. Thirty minutes after LPS injection, 0.5 mg GGL27, GGL27(S), DSE25 or buffer alone was injected intraperitoneally into the mice. Survival and status was followed during seven days. For blood collection and histochemistry, mice were sacrificed 20 h after LPS challenge, and lungs were removed and fixed. These experiments were approved by the Laboratory Animal Ethics Committee of Malmo/Lund.
Cytokine assay—The cytokines IL-6, IL-10, MCP-1, INF-γ, and TNF-α were measured in plasma from mice subjected to LPS (with or without peptide treatment) using the Cytometric bead array; mouse inflammation kit (Becton Dickinson AB) according to the manufacturer's instructions.

In test [2] the test system is P. aeruginosa infected mice. In words: Animal infection model, P. aeruginosa. Format: in vivo, mouse. The settings on record: P. aeruginosa i.p.; GGL27 500 μg s.c. after 1 h; P<0.001. The method, then:
(§1) Animal infection model—Animals were housed under standard conditions of light and temperature and had free access to standard laboratory chow and water. P. aeruginosa 15159 bacteria were grown to logarithmic phase (OD620˜0.5), harvested, washed in PBS, diluted in the same buffer to 2×10^8 cfu/ml, and kept on ice until injection. Hundred microliter of the bacterial suspension was injected intraperitoneally (i.p.) into female Balb/c mice. Sixty minutes after the bacterial injection, 0.5 mg GGL27 or buffer alone was injected subcutaneously (s.c.) into the mice. In a corresponding E. coli infection model, bacteria were grown to early logarithmic phase (OD620˜0.4), harvested, washed in PBS, diluted in the same buffer to 1×10^8 cfu/ml, and kept on ice until injection. Hundred microliter of the bacterial suspension was injected i.p. into female Balb/c mice. Thirty minutes after the bacterial injection, 0.2 mg of GGL27 peptide or buffer alone was injected i.p. Data from two independent experiments were pooled.

In test [3] the test system is E. coli. The test is described as follows: FACS binding of TAMRA labeled peptide to E. coli. Also noted: species or system Escherichia coli. The settings on record: 3 μM TAMRA labeled peptide in human plasma. On the procedure: (§2) Flow cytometry analysis—Fifty μl of bacteria (1-2×10^6 cfu) were incubated with 450 μl of human plasma either alone or supplemented with GGL27 (at 3 μM). Samples were incubated for 30 min or 1 h at 37° C., divided into two equal parts, centrifuged, washed with PBS, and resuspended in 100 μl PBS with rabbit polyclonal antibodies against either LGE27 (25), a C-terminal epitope of human C3a, or rabbit polyclonal antibodies against C1q (both at 1:100). The mixtures were subsequently incubated for 1 h at room temperature. Bacteria were pelleted and washed twice with PBS, incubated in 100 μl PBS with goat anti rabbit IgG FITC-labeled antibodies (1:500, Sigma) for 30 min at room temperature and washed twice with PBS. In another experiment bacteria were incubated for 1 h in citrate plasma together with 3 μM TAMRA-labeled GGL27 peptide, then pelleted and washed twice with PBS. Flow cytometry analysis (Becton-Dickinson, Franklin Lakes, N.J.) was performed using a FACS-Calibur flow cytometry system equipped with a 15 mW argon laser turned a 488 nm. The bacterial population was selected by gating with appropriate settings of forward scatter (FSC) and sideward scatter (SSC).

Test [4] deals with P. aeruginosa. In words: Complement (C1q, C5b-9/MAC, C3a) binding to P. aeruginosa in citrate plasma (immunoblot, flow cytometry). Format: cell-based, Pseudomonas aeruginosa. The settings on record: citrate plasma with GGL27 at 3 μM. The method, then:
as §2, with “The bacterial population was selected by gating with appropriate settings of forward scatter (FSC) and sideward scatter (SSC).” left out
SDS-PAGE and immunoblotting—Human citrate plasma (450 μl) was incubated with 50 μl bacteria (1-2×10^9 cfu) either alone or supplemented with the peptide GGL27 at 3 μM. […] Precipitated material and supernatants were dissolved in SDS sample buffer and analyzed under reducing conditions by SDS-PAGE on 16.5% Tris-tricine gels (Clear PAGE™, C.B.S Scientific). […]
(A western blot detects proteins with antibodies after separation by electrophoresis.)

The subject of test [5] is P. aeruginosa. In words: FACS binding of TAMRA labeled peptide to P. aeruginosa. As to conditions: 3 μM TAMRA labeled peptide in human plasma. Also noted: species or system Pseudomonas aeruginosa. On the procedure:
as §2

A further test concerns E. coli infected mice. The test is described as follows: Animal infection model, E. coli. As to conditions: E. coli i.p.; GGL27 200 μg i.p. after 30 min; P<0.001. The format is in vivo, mouse. The method, then: as §1
For test [6], the system named is E. coli. In words: Complement (C1q, C5b-9/MAC, C3a) binding to E. coli in citrate plasma (immunoblot, flow cytometry). The format is cell-based, Escherichia coli. As to conditions: citrate plasma with GGL27 at 3 μM. On the procedure: as §2
SDS-PAGE and immunoblotting—Human citrate plasma (450 μl) was incubated with 50 μl bacteria (1-2×10^9 cfu) either alone or supplemented with the peptide GGL27 at 3 μM. The mixture was incubated for 30 min or 1 h at 37° C., centrifuged, and supernatants and bacteria collected. The bacterial pellet was washed with PBS and bound proteins eluted with 0.1 M glycine-HCl, pH 2.0. The pH of the eluted material was raised to 7.5 with 1 M Tris. Eluted proteins were precipitated by addition of 1 volume of trichloroacetic acid (TCA) to 4 volumes of sample, followed by incubation for 30 min on ice and centrifugation at 15 000 g (4° C. for 20 min). Precipitated material and supernatants were dissolved in SDS sample buffer and analyzed under reducing conditions by SDS-PAGE on 16.5% Tris-tricine gels (Clear PAGE™, C.B.S Scientific). Proteins and peptides were transferred to nitrocellulose membranes (Hybond-C). […]

The mark [7] stands for this setting: 20 h after LPS injection, peptide 500 μg.

“Also recorded” adds a separate entry of the source.

As to “GGLIKTKRKRKKQRVKIAYEEIFVKNM [GGL27, C-terminal peptide of TFPI, plasmin-generated]”, the “inflammatory changes in lungs (histochemical analysis)” value in test [1] (20 h after LPS injection, GGL27 500 μg) is “marked attenuation of inflammatory changes; also recorded: marked reduction of inflammation and vascular leakage”. Further, in test [1] (setting [7]), the IFN-γ in blood result was “significant reductions”, the IL-6 in blood entry is on record as “significant reductions”, the IL-10 in blood entry is “increased” and the MCP-1 in blood entry is listed as “significant reductions”. Further, in test [1] (setting [7]), the TNF-α in blood entry is reported as “significant reductions” and the “overall (proinflammatory) cytokine release” value is listed as “attenuates proinflammatory cytokines”. Besides, the survival entry in test [1] (E. coli LPS i.p., peptide 500 μg i.p. 30 minutes after, followed 7 days) is on record as “significantly increased survival”. Further, in test [1] (mouse model of LPS-shock), the “anti-endotoxic effects in vivo” value is reported as “anti-endotoxic effects”. Also, the survival entry in test [2] is listed as “prolongs survival; also recorded: prolongation of survival”. In the test on E. coli [3], the binding to bacteria entry is “avidly bound”. The “generation and binding of C3a-containing fragments to the bacterial surface” value in the test on P. aeruginosa [4] (FACS analysis) was “increased generation and binding of these C3a-containing fragments”. Moreover, the C1q/MAC alterations entry with P. aeruginosa [4] was “no significant C1q/MAC alterations”. In addition, the binding to bacteria result in the test with P. aeruginosa [5] was “avidly bound”. Besides, in the test on E. coli infected mice, the survival result was “prolongs survival; also recorded: prolongation of survival”. Further, in the test on E. coli [6], the “binding of C1q to bacteria” value is reported as “enhances; also recorded: enhanced binding of C1q”, the “formation of MAC” value is listed as “enhances; also recorded: increased formation of MAC” and the “generation / binding of C3a” value is given as “enhances; also recorded: significant generation of C3a”.
